In patent US20090270359A1, “SUBSTITUTED PYRAZOLE DERIVATIVES” (TAKEDA PHARMACEUTICAL COMPANY LIMITED, priority 2007, published 2009):
Residue numbers refer to the chain shown, from its start.

How the values were obtained:
mutant AR (W741C) = biological target: T1, mutant AR (W741C) (Homo sapiens, UniProt P10275, W742C); experiment: AR transcription inhibition test (luciferase reporter in Cos-7 cells); type: cell-based; settings: compound 1 μM, 0.1 μM DHT, luciferase activity after 24 hr, relative to control (0.1 μM DHT), read-out: Inhibitory rate (%) of mutant AR at 1 μM
T1 construct: expressed in transfected cells; host or cells: Cos-7
T1 sequence (P10275 1-920 W742C): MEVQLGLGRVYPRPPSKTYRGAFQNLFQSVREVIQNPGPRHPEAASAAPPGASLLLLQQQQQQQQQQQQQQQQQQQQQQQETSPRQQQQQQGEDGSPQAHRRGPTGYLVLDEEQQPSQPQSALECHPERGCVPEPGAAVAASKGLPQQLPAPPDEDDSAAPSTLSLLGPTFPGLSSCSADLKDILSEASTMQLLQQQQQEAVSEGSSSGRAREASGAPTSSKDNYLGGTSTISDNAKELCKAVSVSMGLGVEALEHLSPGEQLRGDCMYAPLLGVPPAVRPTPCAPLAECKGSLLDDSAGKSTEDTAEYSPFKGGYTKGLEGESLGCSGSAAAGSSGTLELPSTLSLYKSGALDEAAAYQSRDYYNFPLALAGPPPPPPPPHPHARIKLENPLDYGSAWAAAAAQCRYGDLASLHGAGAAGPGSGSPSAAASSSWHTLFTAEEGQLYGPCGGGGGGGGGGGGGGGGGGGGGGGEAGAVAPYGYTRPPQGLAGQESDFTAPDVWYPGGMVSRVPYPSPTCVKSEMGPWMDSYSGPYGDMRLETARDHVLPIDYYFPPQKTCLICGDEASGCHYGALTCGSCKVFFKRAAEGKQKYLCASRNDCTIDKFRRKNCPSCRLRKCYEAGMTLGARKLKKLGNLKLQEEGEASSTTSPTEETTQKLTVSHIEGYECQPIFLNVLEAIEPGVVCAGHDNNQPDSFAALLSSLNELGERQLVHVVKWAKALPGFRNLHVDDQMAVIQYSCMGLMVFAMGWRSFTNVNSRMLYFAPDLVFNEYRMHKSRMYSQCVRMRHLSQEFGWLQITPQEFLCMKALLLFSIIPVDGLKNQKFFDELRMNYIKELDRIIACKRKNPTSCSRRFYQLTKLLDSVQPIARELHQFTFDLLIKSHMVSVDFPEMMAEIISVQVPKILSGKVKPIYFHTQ
Protocol: Cos-7 cells (5,000,000 cells) were inoculated to a flask, and incubated in a culture medium (DMEM+10% Dextran Charcoal (DCC)−Fetal Bovine Serum (FBS) and 2 mM glutamine) for 24 hours. Then, a vector DNA harboring mutant AR (W741C) and a vector DNA containing a luciferase gene bound at the downstream of an androgen responsive promoter were cotransfected by a liposome method. After 4 hr, the medium was changed and, after culture for 3 hr, DHT (dihydrotestosterone) at the final concentration of 0.1 μM and the compound at the final concentration of 1 μM were added. After further culture for 24 hr, the luciferase activity was measured, and the AR transcription inhibitory activity of the compound was examined.

[1] = biological target: T2, wild type androgen receptor (AR) (Homo sapiens, UniProt P10275); experiment: AR-binding inhibition test, wild type (radio-labeled Mibolerone displacement); settings: compound 1 μM; 3 nM radio-labeled Mibolerone; 4° C., 3 hours; dextran/charcoal method; read-out: Inhibitory rate (%) at 1 μM, wild type
T2 sequence (P10275 1-920): T1 sequence (P10275 1-920 W742C) with C742W
Protocol: (§1) To a solution of wild type or LNCaP type mutant androgen receptor (AR) was added 3 nM radio-labeled Mibolerone and final concentration 1 μM of the compound. The mixture was incubated at 4° C. for 3 hours, and B (Bound) and F (Free) Mibolerones were separated by the dextran/charcoal method. The label count of B was measured and the inhibition rate of the compound was calculated.

[2] = system: Human prostate cancer cells LNCaP-FGC; experiment: Prostate specific antigen (PSA) production inhibition test in prostate cancer cells; type: cell-based; settings: compound 1 μM, testosterone 0.1 ng/m, PSA in culture supernatant after 3 days by ELISA, testosterone non-addition group 100%, addition group 0%; for inhibition at 1 µM: Homo sapiens, 72 h, read-out: Inhibitory rate (%) at 1 μM (PSA production suppression rate)
Protocol: Human prostate cancer cells LNCaP-FGC were plated in a 24 well plate at 40000 cells/1000 μL/well, and testosterone (final concentration 0.1 ng/m) and the compound (1 μM) were added the next day. The concentration of PSA in the culture supernatant after 3 days from the addition was measured by ELISA, and the PSA production suppression rate was calculated with the testosterone non-addition group as 100% and the testosterone addition group as 0%.

[3] = biological target: T3, LNCaP type mutant androgen receptor (AR) (Homo sapiens, UniProt P10275, T878A); experiment: AR-binding inhibition test, LNCaP type (radio-labeled Mibolerone displacement); settings: compound 1 μM; 3 nM radio-labeled Mibolerone; 4° C., 3 hours; dextran/charcoal method; read-out: Inhibitory rate (%) at 1 μM, LNCaP type
T3 sequence (P10275 1-920 T878A): T1 sequence (P10275 1-920 W742C) with C742W, T878A
Protocol: as §1

| SMILES | inhibition at 1 µM (mutant AR (W741C)) [%] | inhibition at 1 µM [1] [%] | inhibition at 1 µM [2] [%] | inhibition at 1 µM [3] [%] | Inhibitory rate (%) at 1 μM (PSA production suppression rate) [2] [%] |
| --- | --- | --- | --- | --- | --- |
| Cc1nn(Cc2cccc(C(N)=O)c2)c(C)c1-c1ccc(C#N)c(Cl)c1 [Example 68, 3-{[4-(3-chloro-4-cyanophenyl)-3,5-dimethyl-1H-pyrazol-1-yl]methyl}benzamide] | 31 | 76 | 95.4 | 82 | – |
| Cc1nn(Cc2ccc(C(N)=O)cc2)c(C)c1-c1ccc(C#N)c(Cl)c1 [Example 69, 4-{[4-(3-chloro-4-cyanophenyl)-3,5-dimethyl-1H-pyrazol-1-yl]methyl}benzamide] | 19 | 88 | 107 | 80 | – |
| Cc1nn(Cc2ccc(F)c(C(N)=O)c2)c(C)c1-c1ccc(C#N)c(Cl)c1 [Example 77, 5-{[4-(3-chloro-4-cyanophenyl)-3,5-dimethyl-1H-pyrazol-1-yl]methyl}-2-fluorobenzamide] | 92 | 78 | 102 | 68 | – |
| Cc1nn(Cc2ccc(C(N)=O)nc2)c(C)c1-c1ccc(C#N)c(Cl)c1 [Example 105, 5-{[4-(3-chloro-4-cyanophenyl)-3,5-dimethyl-1H-pyrazol-1-yl]methyl}pyridine-2-carboxamide] | 32 | 66 | 109 | 75 | – |
| CNC(=O)c1ccc(Cn2nc(C)c(-c3ccc(C#N)c(Cl)c3)c2C)cn1 [Example 106, 5-{[4-(3-chloro-4-cyanophenyl)-3,5-dimethyl-1H-pyrazol-1-yl]methyl}-N-methylpyridine-2-carboxamide] | 38 | 49 | 110 | 79 | – |
| Cc1nn(Cc2ccc(C(=O)NCC(C)(C)O)cc2)c(C)c1-c1ccc(C#N)c(Cl)c1 [Example 282, 4-{[4-(3-chloro-4-cyanophenyl)-3,5-dimethyl-1H-pyrazol-1-yl]methyl}-N-(2-hydroxy-2-methylpropyl)benzamide] | 28 | 58 | 80 | 54 | – |
| Cc1nnc(-c2ccc(Cn3nc(C)c(-c4ccc(C#N)c(Cl)c4)c3C)cc2)o1 [Example 286, 2-chloro-4-{3,5-dimethyl-1-[4-(5-methyl-1,3,4-oxadiazol-2-yl)benzyl]-1H-pyrazol-4-yl}benzonitrile] | 67 | 85 | 107 | 89 | – |
| Cc1nn(Cc2ccc(C(=O)NC3CC3)cc2)c(C)c1-c1ccc(C#N)c(Cl)c1 [Example 304, 4-{[4-(3-chloro-4-cyanophenyl)-3,5-dimethyl-1H-pyrazol-1-yl]methyl}-N-cyclopropylbenzamide] | 36 | 74 | 98.3 | 82 | – |
| Cc1nn(Cc2ccc(C(=O)NC3CC3)nc2)c(C)c1-c1ccc(C#N)c(Cl)c1 [Example 310, 5-{[4-(3-chloro-4-cyanophenyl)-3,5-dimethyl-1H-pyrazol-1-yl]methyl}-N-cyclopropylpyridine-2-carboxamide] | 72 | 70 | 106 | 73 | – |
| Cc1nn(Cc2ccc(C(N)=O)nc2)c(C)c1-c1ccc(C#N)c(C(F)(F)F)c1 [Example 311, 5-({4-[4-cyano-3-(trifluoromethyl)phenyl]-3,5-dimethyl-1H-pyrazol-1-yl}methyl)pyridine-2-carboxamide] | 17 | 29 | 85.8 | 29 | – |
| Cc1nn(Cc2ccc(S(N)(=O)=O)cc2)c(C)c1-c1ccc(C#N)c(Cl)c1 [Example 322, 4-{[4-(3-chloro-4-cyanophenyl)-3,5-dimethyl-1H-pyrazol-1-yl]methyl}benzenesulfonamide] | 24 | 84 | 108 | 83 | – |
| CC(O)(CS(=O)(=O)c1ccc(F)cc1)C(=O)Nc1ccc(C#N)c(C(F)(F)F)c1 (stereo not drawn) [bicartamide, reference compound] | – | – | – | – | 75.0 |
